Tests used:
[1] = test system: SMN2 minigene mRNA (SMN2-A minigene) in HEK293H cells; experiment: SMN2 minigene mRNA splicing RT-qPCR assay in cultured cells; assay type: cell-based, human; conditions: Homo sapiens, HEK293-H; concentration increasing full length SMN2 mRNA 1.5-fold relative to vehicle-treated cells; HEK293H cells with SMN2-A minigene, 24 hours, 7-point concentration data; read-out: EC1.5x for production of full length SMN2 mRNA
Method in brief: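 HEK293H cells stably carrying the SMN2-A minigene were treated for 24 h at 37 °C with a 7-point, 3.16-fold dilution series of compound. Multiplex RT-qPCR measured exon 7-containing minigene FL mRNA against GAPDH, expressed relative to vehicle by modified ΔΔCt; the EC1.5× is the concentration giving a 1.5-fold increase.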

[2] = test system: Smn protein in SMA patient fibroblast cells (GM03813); experiment: Smn protein assay in cultured cells (SMN HTRF); assay type: cell-based, human; conditions: SMA patient fibroblast cells, 48 hours; for EC1.5x for Smn protein expression: 7-point concentration curve, SMN HTRF, concentration producing 1.5 times Smn protein vs DMSO vehicle control; for maximum fold (Fold) increase of Smn protein: 7-point concentration data, fold relative to vehicle control
Method in brief: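 SMA patient fibroblasts (5,000 cells/well, DMEM-10% FBS) were treated for 48 h at 37 °C with a 7-point, 3.16-fold dilution series in triplicate. RIPA lysates were probed by HTRF (anti-SMN d2/kryptate, overnight, room temperature), reading 665/620 nm. EC1.5× is the concentration giving 1.5-fold Smn over DMSO vehicle.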

SMILES | EC (1.5-fold increase) [1] | EC1.5x for Smn protein expression [2] | maximum fold (Fold) increase of Smn protein [2]
CCc1nc(C)cn2nc(-c3cc(=O)n4cc(N5CCN(CC)CC5)cc(C)c4n3)cc12 [Compound 817, 2-(4-ethyl-6-methylpyrazolo[1,5-a]pyrazin-2-yl)-7-(4-ethylpiperazin-1-yl)-9-methyl-4H-pyrido[1,2-a]pyrimidin-4-one] | < 0.1 µM | **** (an EC1.5x≤0.3 μM is indicated by four stars (****)) | ***** (a fold increase >1.65 is indicated by five stars (*****))
Cc1cn2cc(-c3cc(=O)n4cc(C5CCNCC5)ncc4n3)ccc2n1 [Compound 585, 2-(2-methylimidazo[1,2-a]pyridin-6-yl)-7-(piperidin-4-yl)-4H-pyrazino[1,2-a]pyrimidin-4-one] | < 0.1 µM | **** (an EC1.5x≤0.3 μM is indicated by four stars (****)) | ***** (a fold increase >1.65 is indicated by five stars (*****))
COc1ccc(-c2cc(=O)n3cc(N4CCC(N(C)C)CC4)ccc3c2)cc1F [Compound 203, 7-[4-(dimethylamino)piperidin-1-yl]-2-(3-fluoro-4-methoxyphenyl)-4H-quinolizin-4-one] | 1 to 3 µM | – | * (A maximum fold increase of ≤1.2 is indicated by one star (*))
Cc1cn2cc(-c3cc(=O)n4cc(N5CCN(CCO)CC5)ccc4n3)cc(F)c2n1 [Compound 801, 2-(8-fluoro-2-methylimidazo[1,2-a]pyridin-6-yl)-7-[4-(2-hydroxyethyl)piperazin-1-yl]-4H-pyrido[1,2-a]pyrimidin-4-one] | 0.1 to 0.3 µM | *** (an EC1.5× between >0.3 μM and ≤1 μM is indicated by three stars (***)) | ***** (a fold increase >1.65 is indicated by five stars (*****))
CCc1nc(C)cn2nc(-c3cc(=O)n4cc(OCCN5CCCCC5)ccc4n3)cc12 [Compound 832, 2-(4-ethyl-6-methylpyrazolo[1,5-a]pyrazin-2-yl)-7-[2-(piperidin-1-yl)ethoxy]-4H-pyrido[1,2-a]pyrimidin-4-one] | 0.1 to 0.3 µM | *** (an EC1.5× between >0.3 μM and ≤1 μM is indicated by three stars (***)) | ***** (a fold increase >1.65 is indicated by five stars (*****))
COc1ccc(-c2cc(=O)n3cc(N4CCNCC4)cc(C)c3n2)cc1OC [Compound 160, 2-(3,4-dimethoxyphenyl)-9-methyl-7-(piperazin-1-yl)-4H-pyrido[1,2-a]pyrimidin-4-one] | < 0.1 µM | *** (an EC1.5× between >0.3 μM and ≤1 μM is indicated by three stars (***)) | *** (a fold increase between >1.35 and ≤1.5 is indicated by three stars (***))
Cc1cn2cc(-c3cc(=O)n4cc(N5CCC(N)CC5)ccc4n3)cc(F)c2n1 [Compound 273, 7-(4-aminopiperidin-1-yl)-2-(8-fluoro-2-methylimidazo[1,2-a]pyridin-6-yl)-4H-pyrido[1,2-a]pyrimidin-4-one] | < 0.1 µM | **** (an EC1.5x≤0.3 μM is indicated by four stars (****)) | ***** (a fold increase >1.65 is indicated by five stars (*****))
Cc1cn2nc(-c3cc(=O)n4cc(N5C[C@H]6CN(C)C[C@H]6C5)ccc4n3)cc2c(C)n1 [Compound 835, 2-(4,6-dimethylpyrazolo[1,5-a]pyrazin-2-yl)-7-[(3aR,6aS)-5-methylhexahydropyrrolo[3,4-c]pyrrol-2(1H)-yl]-4H-pyrido[1,2-a]pyrimidin-4-one] | < 0.1 µM | **** (an EC1.5x≤0.3 μM is indicated by four stars (****)) | ***** (a fold increase >1.65 is indicated by five stars (*****))
O=c1cc(-c2cc(F)c(O)c(F)c2)nc2ccc(N3CCNCC3)cn12 [Compound 71, 2-(3,5-difluoro-4-hydroxyphenyl)-7-(piperazin-1-yl)-4H-pyrido[1,2-a]pyrimidin-4-one] | 1 to 3 µM | * (An EC1.5× for Smn protein expression between >3 μM and ≤10 μM is indicated by one star (*)) | **** (a fold increase between >1.5 and ≤1.65 is indicated by four stars (****))
COc1ccc(-c2cc(=O)n3cc(N4CCCNCC4)ccc3n2)cc1OC [Compound 10, 7-(1,4-diazepan-1-yl)-2-(3,4-dimethoxyphenyl)-4H-pyrido[1,2-a]pyrimidin-4-one] | 1 to 3 µM | – | ** (a fold increase between >1.2 and ≤1.35 is indicated by two stars (**))
CC(C)N1CCC(c2ccc3nc(-c4ccc5nn(C)cc5c4)cc(=O)n3c2)CC1 [Compound 608, 2-(2-methyl-2H-indazol-5-yl)-7-[1-(propan-2-yl)piperidin-4-yl]-4H-pyrido[1,2-a]pyrimidin-4-one] | 0.1 to 0.3 µM | ** (an EC1.5× between >1 μM and ≤3 μM is indicated by two stars (**)) | **** (a fold increase between >1.5 and ≤1.65 is indicated by four stars (****))
CCNC[C@@H]1CCN(c2ccc3nc(-c4cc5c(C)nc(C)cn5n4)cc(=O)n3c2)C1 [Compound 779, 2-(4,6-dimethylpyrazolo[1,5-a]pyrazin-2-yl)-7-{(3S)-3-[(ethylamino)methyl]pyrrolidin-1-yl}-4H-pyrido[1,2-a]pyrimidin-4-one] | < 0.1 µM | **** (an EC1.5x≤0.3 μM is indicated by four stars (****)) | ***** (a fold increase >1.65 is indicated by five stars (*****))
CCN1CCC(c2cc(C)c3nc(-c4cc5c(C)nc(C)cn5n4)cc(=O)n3c2)CC1 [Compound 702, 2-(4,6-dimethylpyrazolo[1,5-a]pyrazin-2-yl)-7-(1-ethylpiperidin-4-yl)-9-methyl-4H-pyrido[1,2-a]pyrimidin-4-one] | < 0.1 µM | **** (an EC1.5x≤0.3 μM is indicated by four stars (****)) | ***** (a fold increase >1.65 is indicated by five stars (*****))
COc1ccc(-c2cc(=O)n3cc(N4CCC(NC(C)C)CC4)ccc3n2)cc1OC [Compound 361, 2-(3,4-dimethoxyphenyl)-7-[4-(propan-2-ylamino)piperidin-1-yl]-4H-pyrido[1,2-a]pyrimidin-4-one] | 0.1 to 0.3 µM | – | *** (a fold increase between >1.35 and ≤1.5 is indicated by three stars (***))

Source: patent US11753407B2, “Compounds for treating spinal muscular atrophy” (PTC Therapeutics, Inc., priority 2012, dated 2023)
